From ChEMBL document CHEMBL3991601, “The target landscape of clinical kinase drugs” (Science, 2017)
Active and inactive are the calls of the source. Rule as the data show it, for most assays here: actives have a measured Kd and inactives only a lower limit.

Columns and labels:
[1] = target: G protein-coupled receptor kinase 6 (Homo sapiens, UniProt P43250)
[2] = target: Glycogen synthase kinase-3 beta (Homo sapiens, UniProt P49841)
[3] = target: T1, Isoleucine--tRNA ligase, mitochondrial (Homo sapiens, UniProt Q9NSE4)
T1 sequence (Q9NSE4 whole entry): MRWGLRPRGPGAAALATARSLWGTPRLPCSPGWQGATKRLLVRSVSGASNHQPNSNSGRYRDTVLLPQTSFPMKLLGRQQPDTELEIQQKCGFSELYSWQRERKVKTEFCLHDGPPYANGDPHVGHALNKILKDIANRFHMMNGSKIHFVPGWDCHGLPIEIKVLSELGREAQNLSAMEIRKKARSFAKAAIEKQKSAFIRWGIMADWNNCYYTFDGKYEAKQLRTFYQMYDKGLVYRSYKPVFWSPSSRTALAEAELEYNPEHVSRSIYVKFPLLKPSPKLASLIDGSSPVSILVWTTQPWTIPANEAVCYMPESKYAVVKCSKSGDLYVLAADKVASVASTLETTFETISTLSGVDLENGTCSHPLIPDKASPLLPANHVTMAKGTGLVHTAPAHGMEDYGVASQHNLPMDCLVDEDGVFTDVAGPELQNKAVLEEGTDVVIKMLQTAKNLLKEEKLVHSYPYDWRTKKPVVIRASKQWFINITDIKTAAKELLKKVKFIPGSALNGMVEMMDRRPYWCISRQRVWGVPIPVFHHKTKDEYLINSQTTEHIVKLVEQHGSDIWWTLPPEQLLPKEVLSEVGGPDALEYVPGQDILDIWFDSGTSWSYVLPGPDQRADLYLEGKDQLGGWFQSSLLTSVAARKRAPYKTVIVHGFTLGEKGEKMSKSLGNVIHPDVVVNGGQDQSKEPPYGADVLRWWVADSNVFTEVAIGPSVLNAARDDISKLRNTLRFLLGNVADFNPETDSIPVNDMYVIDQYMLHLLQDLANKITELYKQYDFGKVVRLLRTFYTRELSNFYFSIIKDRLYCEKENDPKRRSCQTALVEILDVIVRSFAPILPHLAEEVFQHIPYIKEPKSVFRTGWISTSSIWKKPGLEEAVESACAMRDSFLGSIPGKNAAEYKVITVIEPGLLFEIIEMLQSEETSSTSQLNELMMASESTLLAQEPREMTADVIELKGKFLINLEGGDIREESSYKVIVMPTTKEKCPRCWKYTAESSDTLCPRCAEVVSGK

[4] = target: Dual specificity mitogen-activated protein kinase kinase 1 (Homo sapiens, UniProt Q02750)
[5] = target: Rho-associated protein kinase 1 (Homo sapiens, UniProt Q13464)
[6] = target: T2, Tyrosine-protein kinase Tec (Homo sapiens, UniProt P42680)
T2 sequence (P42680 whole entry): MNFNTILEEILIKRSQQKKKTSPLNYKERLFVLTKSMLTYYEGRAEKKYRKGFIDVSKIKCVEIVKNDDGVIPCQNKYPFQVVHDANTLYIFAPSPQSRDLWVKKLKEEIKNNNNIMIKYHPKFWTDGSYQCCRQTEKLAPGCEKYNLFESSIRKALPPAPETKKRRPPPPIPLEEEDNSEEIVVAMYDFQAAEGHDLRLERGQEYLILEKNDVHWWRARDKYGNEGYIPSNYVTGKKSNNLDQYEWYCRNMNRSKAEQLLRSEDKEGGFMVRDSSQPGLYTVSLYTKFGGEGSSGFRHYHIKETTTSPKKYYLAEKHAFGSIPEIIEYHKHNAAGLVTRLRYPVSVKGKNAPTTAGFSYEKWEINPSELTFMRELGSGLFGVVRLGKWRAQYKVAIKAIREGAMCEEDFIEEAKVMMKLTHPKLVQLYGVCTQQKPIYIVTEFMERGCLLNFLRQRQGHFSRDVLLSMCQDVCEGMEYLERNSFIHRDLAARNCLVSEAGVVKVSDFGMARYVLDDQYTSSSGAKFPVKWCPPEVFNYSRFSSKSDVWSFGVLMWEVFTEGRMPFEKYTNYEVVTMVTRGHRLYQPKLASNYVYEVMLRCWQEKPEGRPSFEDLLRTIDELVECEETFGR

[7] = target: T3, Thyroid hormone receptor-associated protein 3 (Homo sapiens, UniProt Q9Y2W1)
T3 sequence (Q9Y2W1 whole entry): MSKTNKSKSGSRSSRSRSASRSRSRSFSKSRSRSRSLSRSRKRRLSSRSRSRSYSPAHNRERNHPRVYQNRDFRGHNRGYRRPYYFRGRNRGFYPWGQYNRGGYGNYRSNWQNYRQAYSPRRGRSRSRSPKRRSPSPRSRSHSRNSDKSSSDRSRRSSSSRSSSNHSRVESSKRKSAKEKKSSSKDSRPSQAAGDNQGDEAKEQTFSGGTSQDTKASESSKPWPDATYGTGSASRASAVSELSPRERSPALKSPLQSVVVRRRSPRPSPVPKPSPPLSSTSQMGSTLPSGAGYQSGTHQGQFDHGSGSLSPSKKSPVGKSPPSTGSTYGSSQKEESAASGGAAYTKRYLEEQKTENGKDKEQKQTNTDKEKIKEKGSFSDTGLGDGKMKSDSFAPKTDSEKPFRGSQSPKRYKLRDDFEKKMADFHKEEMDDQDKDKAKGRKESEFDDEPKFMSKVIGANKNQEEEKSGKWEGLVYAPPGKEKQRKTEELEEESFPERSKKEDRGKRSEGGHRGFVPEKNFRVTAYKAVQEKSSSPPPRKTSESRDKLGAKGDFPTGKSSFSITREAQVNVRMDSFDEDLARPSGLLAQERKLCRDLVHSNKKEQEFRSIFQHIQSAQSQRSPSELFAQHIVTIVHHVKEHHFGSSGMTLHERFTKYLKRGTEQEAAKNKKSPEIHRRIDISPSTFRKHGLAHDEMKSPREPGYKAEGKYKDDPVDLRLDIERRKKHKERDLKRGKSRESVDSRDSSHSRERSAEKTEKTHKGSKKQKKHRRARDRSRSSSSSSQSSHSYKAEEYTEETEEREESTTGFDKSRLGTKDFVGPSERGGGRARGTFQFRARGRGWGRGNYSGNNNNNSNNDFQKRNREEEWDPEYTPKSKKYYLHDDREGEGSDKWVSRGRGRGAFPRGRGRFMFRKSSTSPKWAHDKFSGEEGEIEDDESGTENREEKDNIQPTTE
Also: in the data inactive means no Kd found up to 30 µM.

Chain of G protein-coupled receptor kinase 6 (P43250 whole entry): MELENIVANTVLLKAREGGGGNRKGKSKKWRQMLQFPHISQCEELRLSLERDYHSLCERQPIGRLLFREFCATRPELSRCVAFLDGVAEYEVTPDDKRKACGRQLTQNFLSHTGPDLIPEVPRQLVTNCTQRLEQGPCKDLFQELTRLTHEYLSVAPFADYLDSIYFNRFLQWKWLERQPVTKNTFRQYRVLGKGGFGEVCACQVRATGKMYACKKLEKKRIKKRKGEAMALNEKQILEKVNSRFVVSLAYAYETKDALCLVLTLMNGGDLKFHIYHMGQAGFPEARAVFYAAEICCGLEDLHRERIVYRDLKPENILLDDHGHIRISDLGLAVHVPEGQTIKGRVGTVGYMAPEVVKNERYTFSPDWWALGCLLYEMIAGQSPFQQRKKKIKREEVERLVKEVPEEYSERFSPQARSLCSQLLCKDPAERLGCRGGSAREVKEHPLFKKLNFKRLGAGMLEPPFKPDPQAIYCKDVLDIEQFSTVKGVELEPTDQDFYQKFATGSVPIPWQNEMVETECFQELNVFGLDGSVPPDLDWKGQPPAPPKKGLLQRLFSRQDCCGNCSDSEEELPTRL
Chain of Rho-associated protein kinase 1 (Q13464 whole entry): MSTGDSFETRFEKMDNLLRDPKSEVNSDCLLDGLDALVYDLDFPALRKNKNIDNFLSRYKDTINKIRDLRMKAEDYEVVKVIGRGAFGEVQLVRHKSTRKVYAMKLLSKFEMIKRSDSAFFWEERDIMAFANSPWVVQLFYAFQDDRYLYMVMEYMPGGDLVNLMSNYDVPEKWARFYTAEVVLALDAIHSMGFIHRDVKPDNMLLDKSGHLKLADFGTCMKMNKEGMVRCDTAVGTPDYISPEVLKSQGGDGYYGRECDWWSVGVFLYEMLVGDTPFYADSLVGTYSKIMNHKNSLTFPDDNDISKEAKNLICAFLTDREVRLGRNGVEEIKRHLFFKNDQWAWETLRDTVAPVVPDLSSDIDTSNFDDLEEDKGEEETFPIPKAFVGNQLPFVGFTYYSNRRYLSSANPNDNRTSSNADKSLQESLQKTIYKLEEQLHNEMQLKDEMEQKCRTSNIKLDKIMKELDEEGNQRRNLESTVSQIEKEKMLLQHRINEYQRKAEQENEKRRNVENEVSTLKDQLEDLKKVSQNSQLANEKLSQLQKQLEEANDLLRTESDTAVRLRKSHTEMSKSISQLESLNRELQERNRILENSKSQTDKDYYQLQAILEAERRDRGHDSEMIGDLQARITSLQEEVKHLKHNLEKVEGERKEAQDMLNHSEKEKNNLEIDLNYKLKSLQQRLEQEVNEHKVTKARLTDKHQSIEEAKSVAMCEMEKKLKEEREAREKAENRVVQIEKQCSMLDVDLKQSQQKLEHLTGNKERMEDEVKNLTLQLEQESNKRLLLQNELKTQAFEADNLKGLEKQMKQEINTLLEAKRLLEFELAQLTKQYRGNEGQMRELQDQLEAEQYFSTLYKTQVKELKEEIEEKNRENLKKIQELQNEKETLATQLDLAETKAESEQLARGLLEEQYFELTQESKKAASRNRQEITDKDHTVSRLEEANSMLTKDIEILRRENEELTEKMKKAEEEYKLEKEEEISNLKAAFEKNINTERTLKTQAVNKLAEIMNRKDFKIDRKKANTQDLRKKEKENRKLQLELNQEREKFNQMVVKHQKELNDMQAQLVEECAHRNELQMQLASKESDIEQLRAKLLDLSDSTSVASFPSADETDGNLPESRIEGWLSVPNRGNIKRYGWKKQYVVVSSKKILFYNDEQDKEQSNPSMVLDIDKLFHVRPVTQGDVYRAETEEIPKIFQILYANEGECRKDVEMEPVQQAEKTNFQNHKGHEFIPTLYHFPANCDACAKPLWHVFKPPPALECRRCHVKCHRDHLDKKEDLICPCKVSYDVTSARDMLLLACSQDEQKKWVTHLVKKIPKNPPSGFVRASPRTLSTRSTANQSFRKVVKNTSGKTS
Chain of Dual specificity mitogen-activated protein kinase kinase 1 (Q02750 whole entry): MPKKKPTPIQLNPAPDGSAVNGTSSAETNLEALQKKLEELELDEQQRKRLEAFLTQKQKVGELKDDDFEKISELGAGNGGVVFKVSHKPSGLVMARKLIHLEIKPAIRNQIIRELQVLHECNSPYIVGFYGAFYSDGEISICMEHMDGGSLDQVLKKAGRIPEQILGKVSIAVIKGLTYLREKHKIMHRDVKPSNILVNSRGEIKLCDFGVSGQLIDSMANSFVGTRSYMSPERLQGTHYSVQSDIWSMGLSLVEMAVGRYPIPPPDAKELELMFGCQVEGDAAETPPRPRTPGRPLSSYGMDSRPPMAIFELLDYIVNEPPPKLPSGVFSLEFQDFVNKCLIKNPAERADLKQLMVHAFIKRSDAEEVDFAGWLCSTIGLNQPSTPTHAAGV
Chain of Glycogen synthase kinase-3 beta (P49841 whole entry): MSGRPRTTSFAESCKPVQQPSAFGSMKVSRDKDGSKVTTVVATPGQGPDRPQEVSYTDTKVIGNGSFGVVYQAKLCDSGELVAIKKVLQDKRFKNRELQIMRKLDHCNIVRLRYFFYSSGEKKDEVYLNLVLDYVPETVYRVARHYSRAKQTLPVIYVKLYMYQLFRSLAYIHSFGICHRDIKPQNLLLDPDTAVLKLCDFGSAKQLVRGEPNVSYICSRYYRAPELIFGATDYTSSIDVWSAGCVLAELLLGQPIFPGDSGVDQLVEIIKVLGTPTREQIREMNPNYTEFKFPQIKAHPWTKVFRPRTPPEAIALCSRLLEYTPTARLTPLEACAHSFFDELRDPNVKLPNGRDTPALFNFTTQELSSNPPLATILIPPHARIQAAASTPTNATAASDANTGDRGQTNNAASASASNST

Row | SMILES | Kd [1] | Kd [2] | Kd [3] | Kd [4] | Kd [5] | Kd [6] | Kd [7]
1 | O=C(Nc1ccc(OC(F)(F)F)cc1)c1sccc1NCc1ccnc2ccccc12 [OSI-930] | > 30 µM (inactive) | > 30 µM (inactive) | > 30 µM (inactive) | > 30 µM (inactive) | > 30 µM (inactive) | > 30 µM (inactive) | > 30 µM (inactive)
2 | Cc1cc(Nc2nc(N[C@@H](C)c3ncc(F)cn3)ncc2Cl)n[nH]1 [AZD-1480] | > 30 µM (inactive) | > 30 µM (inactive) | > 30 µM (inactive) | > 30 µM (inactive) | > 30 µM (inactive) | > 30 µM (inactive) | > 30 µM (inactive)
3 | CCc1cc2c(cc1N1CCC(N3CCOCC3)CC1)C(C)(C)c1[nH]c3cc(C#N)ccc3c1C2=O [ALECTINIB] | > 30 µM (inactive) | > 30 µM (inactive) |  | > 30 µM (inactive) | > 30 µM (inactive) | > 30 µM (inactive) | > 30 µM (inactive)
4 | CNC(=O)c1cccc(-c2ccc3c(N4CCOC[C@@H]4C)nc(N4CCOC[C@@H]4C)nc3n2)c1 [VISTUSERTIB] | > 30 µM (inactive) | > 30 µM (inactive) | > 30 µM (inactive) | > 30 µM (inactive) | > 30 µM (inactive) | > 30 µM (inactive) | > 30 µM (inactive)
5 | COc1cc2c(Oc3ccc4[nH]c(C)cc4c3F)ncnc2cc1OCCCN1CCCC1 [CEDIRANIB] | > 30 µM (inactive) |  | > 30 µM (inactive) |  |  |  | 
6 | Cn1c(=O)c(F)c(Nc2ccc(I)cc2F)c2c(=O)n(C[C@@H](O)CO)cnc21 [TAK-733] | > 30 µM (inactive) | > 30 µM (inactive) |  | 0.021 µM (active) | > 30 µM (inactive) | > 30 µM (inactive) | > 30 µM (inactive)
7 | C[C@@H]1COC(Nc2ccc3ncnc(Nc4ccc(OCc5nccs5)c(Cl)c4)c3c2)=N1 [VARLITINIB] | > 30 µM (inactive) | > 30 µM (inactive) |  | > 30 µM (inactive) | > 30 µM (inactive) | > 30 µM (inactive) | > 30 µM (inactive)
8 | CNC(=O)c1ccc(Nc2ncc(C(F)(F)F)c(NCc3nccnc3N(C)S(C)(=O)=O)n2)cc1 [DEFACTINIB] | > 30 µM (inactive) | 1.32 µM (active) |  | > 30 µM (inactive) | > 30 µM (inactive) | > 30 µM (inactive) | > 30 µM (inactive)
9 | Cc1ccc(C(=O)Nc2ccc(Oc3cc4cnn(C)c4cc3-c3cn[nH]c3)c(F)c2)c(=O)n1-c1ccc(F)cc1 [MERESTINIB] | > 30 µM (inactive) | > 30 µM (inactive) | > 30 µM (inactive) | > 30 µM (inactive) | > 30 µM (inactive) | > 30 µM (inactive) | > 30 µM (inactive)
10 | Cc1c(Cn2c(C)nc3c(C(=O)O)cc(N4CCOCC4)cc32)cccc1C(F)(F)F [GSK-2636771] | > 30 µM (inactive) | > 30 µM (inactive) | > 30 µM (inactive) | > 30 µM (inactive) | > 30 µM (inactive) | > 30 µM (inactive) | > 30 µM (inactive)
11 | Cn1cc(-c2[nH]c3cc(NC(=O)[C@H](N)C4CCCCC4)cc4c3c2C=NNC4=O)cn1 | > 30 µM (inactive) | > 30 µM (inactive) | > 30 µM (inactive) | > 30 µM (inactive) | > 30 µM (inactive) | > 30 µM (inactive) | 
12 | COc1cc2ncnc(Nc3ccc(F)c(Cl)c3)c2cc1NC(=O)/C=C/CN1CCCCC1 [DACOMITINIB ANHYDROUS] | > 30 µM (inactive) | > 30 µM (inactive) |  | > 30 µM (inactive) | > 30 µM (inactive) | > 30 µM (inactive) | > 30 µM (inactive)
13 | S=C(NCc1ccc2c(c1)OCO2)N1CCN(c2ncnc3c2oc2ccccc23)CC1 [AMUVATINIB] | > 30 µM (inactive) | > 30 µM (inactive) | > 30 µM (inactive) | > 30 µM (inactive) | > 30 µM (inactive) | > 30 µM (inactive) | > 30 µM (inactive)
14 | COc1cc(F)c(F)c(Nc2ccc(I)cc2F)c1NS(=O)(=O)C1(C[C@H](O)CO)CC1 [REFAMETINIB] | > 30 µM (inactive) | > 30 µM (inactive) | > 30 µM (inactive) |  | > 30 µM (inactive) | > 30 µM (inactive) | > 30 µM (inactive)
15 | C#Cc1cccc(Nc2ncnc3cc4c(cc23)OCCOCCOCCO4)c1 [ICOTINIB] | > 30 µM (inactive) | > 30 µM (inactive) | > 30 µM (inactive) | > 30 µM (inactive) | > 30 µM (inactive) | > 30 µM (inactive) | > 30 µM (inactive)
16 | CC1(COc2ccc3c(c2)ncn3-c2ccc3cccc(N4CCC(N)CC4)c3n2)COC1 [CRENOLANIB] | > 30 µM (inactive) | > 30 µM (inactive) | > 30 µM (inactive) | > 30 µM (inactive) | > 30 µM (inactive) | > 30 µM (inactive) | 
17 | C[C@@]1(C(=O)Nc2ccc(F)nc2)CCCN1c1nc(Nc2cc(C3CC3)n[nH]2)c2cccn2n1 [BMS-754807] | > 30 µM (inactive) |  | > 30 µM (inactive) |  |  |  | > 30 µM (inactive)
18 | CN1CCN(c2nc(C3=C(c4c[nH]c5ccccc45)C(=O)NC3=O)c3ccccc3n2)CC1 [SOTRASTAURIN] | > 30 µM (inactive) | 0.709 µM (active) | > 30 µM (inactive) | > 30 µM (inactive) | > 30 µM (inactive) | > 30 µM (inactive) | 
19 | COc1ccc(-c2ccc3ncc4c(c3c2)n(-c2ccc(N3CCNCC3)c(C(F)(F)F)c2)c(=O)n4C)cn1 [BGT-226 FREE BASE] | > 30 µM (inactive) | > 30 µM (inactive) | > 30 µM (inactive) | > 30 µM (inactive) | > 30 µM (inactive) | > 30 µM (inactive) | 
20 | CC(C)CC(=O)Nc1[nH]nc2c1CN(C(=O)C1CCN(C)CC1)C2(C)C [PHA-793887] | > 30 µM (inactive) | 0.012 µM (active) | > 30 µM (inactive) | > 30 µM (inactive) |  | > 30 µM (inactive) | 
